ChEMBL document CHEMBL4800730 (2021)

What was measured:
[1] = NanoBRET assay (AKT2); conditions: Homo sapiens
AN3-CA = assay: CellTiter-Glo luminescent cell viability assay (CTG) with AN3-CA cells; type: functional, cell-based; conditions: Homo sapiens
[2] = NanoBRET assay (AKT3); conditions: Homo sapiens
[3] = biological target: RAC-alpha serine/threonine-protein kinase (Homo sapiens, UniProt P31749); assay: Homogeneous Time Resolved Fluorescence (HTRF) assay (AKT1)
[4] = NanoBRET assay (AKT1); conditions: Homo sapiens
ZR-75-1 = assay: CellTiter-Glo luminescent cell viability assay (CTG) with ZR-75-1 cells; type: functional, cell-based; conditions: Homo sapiens

Sequence of RAC-alpha serine/threonine-protein kinase (P31749 whole entry): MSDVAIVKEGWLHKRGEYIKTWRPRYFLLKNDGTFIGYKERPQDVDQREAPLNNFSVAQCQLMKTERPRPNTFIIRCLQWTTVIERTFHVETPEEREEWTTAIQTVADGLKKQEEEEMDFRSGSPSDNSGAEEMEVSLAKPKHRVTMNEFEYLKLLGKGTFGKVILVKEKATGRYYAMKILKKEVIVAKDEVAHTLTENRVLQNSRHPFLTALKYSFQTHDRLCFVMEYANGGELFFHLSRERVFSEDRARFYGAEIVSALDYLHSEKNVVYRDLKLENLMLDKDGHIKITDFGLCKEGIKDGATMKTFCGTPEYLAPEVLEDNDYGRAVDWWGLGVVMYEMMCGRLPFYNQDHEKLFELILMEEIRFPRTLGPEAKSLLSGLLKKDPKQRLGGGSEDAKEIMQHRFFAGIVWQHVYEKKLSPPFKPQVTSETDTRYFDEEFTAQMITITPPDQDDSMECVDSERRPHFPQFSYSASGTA

## C=CC(=O)Nc1ccc2[nH]c(=O)n(C3CCN(Cc4ccc(-c5ccc6c(c5)NC(=O)CO6)cc4)CC3)c2c1 [RL2578]
[1]
  EC50: 4.8 µM (not active)
  IC50: 8.3 µM (not active)
AN3-CA
  EC50: 18 µM (not active)
[2]
  EC50: 9.3 µM (not active)
  IC50: 18 µM (not active)
[3]
  IC50: 9.2 µM (not active)
[4]
  EC50: 3.5 µM (not active)
  IC50: 1.9 µM (not active)
ZR-75-1
  EC50: 4.2 µM (not active)
